{"source": "paper PMC8691714", "about": "(Cancer Research Communications, 2021)", "key": {"Caco-2": {"tested_on": "Caco-2", "parameters": "method as in earlier work", "conditions": "PBPK model parameter; ref [17, 18] and Drugbank; cited from earlier work"}, "OCT3": {"biological_target": "T1, OCT3 (Homo sapiens, UniProt O75751)", "T1 construct": "expressed in transfected cells; compared with empty vector control", "T1 sequence (O75751 1-556)": "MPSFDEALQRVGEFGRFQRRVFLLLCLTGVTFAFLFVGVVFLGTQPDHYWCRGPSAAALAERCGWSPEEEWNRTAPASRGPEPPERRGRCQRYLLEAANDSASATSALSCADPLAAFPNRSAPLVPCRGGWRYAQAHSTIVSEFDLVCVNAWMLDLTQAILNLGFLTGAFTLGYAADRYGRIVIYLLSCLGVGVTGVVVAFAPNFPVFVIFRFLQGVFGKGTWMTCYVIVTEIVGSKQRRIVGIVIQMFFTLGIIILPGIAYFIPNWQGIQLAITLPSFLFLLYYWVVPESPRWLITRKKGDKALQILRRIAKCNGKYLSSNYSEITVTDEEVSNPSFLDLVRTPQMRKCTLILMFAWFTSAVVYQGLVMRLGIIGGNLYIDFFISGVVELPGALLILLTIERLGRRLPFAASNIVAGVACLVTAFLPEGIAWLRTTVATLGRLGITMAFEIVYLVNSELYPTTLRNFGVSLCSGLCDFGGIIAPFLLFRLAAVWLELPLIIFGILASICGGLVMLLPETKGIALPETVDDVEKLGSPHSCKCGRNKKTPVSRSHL", "test": "In vitro transport assay, cells overexpressing OCT3", "format": "cell-based", "conditions": "OCT3 vs empty vector; 15 minutes"}, "[1]": {"test": "Cardiac distribution of ibrutinib in mice (heart-to-plasma ratio)", "conditions": "female wild-type mice; six hours after ibrutinib 10 mg/kg orally; cobicistat 30 mg/kg pretreatment vs vehicle; P < 0.01"}, "TMD8 cells": {"tested_on": "TMD8 cells", "test": "MTT viability assay, TMD8 cells, 72 hours", "format": "cell-based, human", "conditions": "Homo sapiens, TMD8, 72 h, MTT", "method": "Cell viability was assessed after 72 hours of incubation."}, "[2]": {"conditions": "cited from earlier work"}}, "data": [{"smiles": "C=CC(=O)N1CCC[C@@H](n2nc(-c3ccc(Oc4ccccc4)cc3)c3c(N)ncnc32)C1", "note": "[Ibrutinib]", "values": [{"measurement": "Caco-2", "setting": "Caco-2", "value": 32.6, "unit": "×10⁻⁶ cm/s"}, {"measurement": "uptake of ibrutinib by transporter-overexpressing cells", "setting": "OCT3", "value": "not substantially facilitated"}, {"measurement": "heart levels of ibrutinib normalized to plasma levels", "setting": "[1]", "value": "substantially lower levels"}, {"measurement": "IC50", "setting": "TMD8 cells; None (Fig. 2A, ketoconazole panel)", "value": 1.4, "unit": "nM"}, {"measurement": "IC50", "setting": "TMD8 cells; None (Fig. 2B, cobicistat panel)", "value": 1.4, "unit": "nM"}, {"measurement": "IC50", "setting": "TMD8 cells; with 0.1 μmol/L cobi", "value": 1.3, "unit": "nM"}, {"measurement": "IC50", "setting": "TMD8 cells; with 0.1 μmol/L keto", "value": 1.1, "unit": "nM"}, {"measurement": "IC50", "setting": "TMD8 cells; with 1 μmol/L cobi", "value": 1.1, "unit": "nM"}, {"measurement": "IC50", "setting": "TMD8 cells; with 1 μmol/L keto", "value": 1, "unit": "nM"}, {"measurement": "IC50", "setting": "TMD8 cells; with 10 μmol/L cobi", "value": 0.82, "unit": "nM"}, {"measurement": "IC50", "setting": "TMD8 cells; with 10 μmol/L keto", "value": 0.88, "unit": "nM"}, {"measurement": "experimentally observed increase in ibrutinib exposure", "setting": "[2]; itraconazole-ibrutinib interaction, ref [8]", "value": 10, "unit": "fold"}, {"measurement": "increase in ibrutinib exposure predicted from a pharmacokinetic model", "setting": "[2]; itraconazole-ibrutinib interaction, ref [23]", "value": 21, "unit": "fold"}, {"measurement": "oral bioavailability", "setting": "[2]; patients, ref [4, 5]", "value": "< 3", "unit": "%"}]}]}
